Laboratory results: ChEMBL document CHEMBL1201862, “PubChem BioAssay data set” (2004)
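Results reflect a 48-hour exposure of cells in 96-well plates to compound at five concentrations. GI50 = concentration required for 50% inhibition of growth.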 Activity calls are given as the source filed them. Cut-off read from the data, not from the text of the source: active = GI50 up to about 1.1 µM and inactive = higher. Square brackets hold non-standard residues; d marks the D form. Peptide text beside a SMILES is read from it. pGlu = O=C1CC[CH](C(=O)O)N1

Legend:
Experiment in all cases: DTP human tumour cell line panel, 48 h
[1] = test system: NCI-H226
[2] = test system: MOLT-4
[3] = test system: HL-60
[4] = test system: CCRF-CEM
[5] = test system: OVCAR-3
[6] = test system: Malme-3M
[7] = test system: UACC-62
[8] = test system: NCI-H23
[9] = test system: LOX IMVI
[10] = test system: SK-OV-3
[11] = test system: PC-3
[12] = test system: ACHN
[13] = test system: TK-10
[14] = test system: T47D
[15] = test system: NCI/ADR-RES
[16] = test system: COLO 205
[17] = test system: DU-145
[18] = test system: NCI-H522
[19] = test system: HCT-15
[20] = test system: SK-MEL-2

Row | Compound | GI50 [1] | GI50 [2] | GI50 [3] | GI50 [4] | GI50 [5] | GI50 [6] | GI50 [7] | GI50 [8] | GI50 [9] | GI50 [10] | GI50 [11] | GI50 [12] | GI50 [13] | GI50 [14] | GI50 [15] | GI50 [16] | GI50 [17] | GI50 [18] | GI50 [19] [µM] | GI50 [20]
1 | CC(NC(=O)C(Cc1c[nH]cn1)NC(=O)C1CCC(=O)N1)C(N)=O (stereo not drawn) ([pGlu]-His-Ala-NH2; configuration not given here) | > 100 µM (inactive) | > 100 µM (inactive) | > 100 µM (inactive) | > 100 µM (inactive) | > 100 µM (inactive) | > 100 µM (inactive) | > 100 µM (inactive) | > 100 µM (inactive) | > 100 µM (inactive) | > 100 µM (inactive) | > 100 µM (inactive) | > 100 µM (inactive) | > 100 µM (inactive) | > 100 µM (inactive) | > 10 µM (inactive) | > 100 µM (inactive) | > 100 µM (inactive) |  |  | 
2 | COc1ccc(CNc2nc3ccccc3nc2-c2cccs2)cc1 | > 100 µM (inactive) | 5.31 µM (inactive) | 61.7 µM (inactive) | 25.9 µM (inactive) | 37.4 µM (inactive) | 50.1 µM (inactive) | 38.4 µM (inactive) | 62.4 µM (inactive) | 12.2 µM (inactive) | 43.4 µM (inactive) |  | 57.5 µM (inactive) | 94.2 µM (inactive) | 22.9 µM (inactive) | 17.4 µM (inactive) | 38.1 µM (inactive) | > 100 µM (inactive) | 23.5 µM (inactive) | 35.4 | 
3 | COC(=O)C(NC(=O)CNC(=O)CSc1nnc(COc2ccc(Cl)cc2)n1-c1ccccc1)C(C)C (stereo unspecified) | 19.1 µM (inactive) | 22.3 µM (inactive) |  | 21.7 µM (inactive) | 17.3 µM (inactive) | 18.4 µM (inactive) | 16.6 µM (inactive) | 20 µM (inactive) | 19.6 µM (inactive) |  | 17.9 µM (inactive) | 18 µM (inactive) | 16.9 µM (inactive) |  | > 100 µM (inactive) | 19.5 µM (inactive) | 18.8 µM (inactive) | 3.75 µM (inactive) | 21.2 | 20.8 µM (inactive)
4 | O=C1CSC(c2c[nH]c3ccccc23)N1c1cccc([N+](=O)[O-])c1 (stereo unspecified) |  | > 100 µM (inactive) | > 100 µM (inactive) | > 100 µM (inactive) | > 100 µM (inactive) |  | 80.5 µM (inactive) | > 100 µM (inactive) | 93.5 µM (inactive) | > 100 µM (inactive) | 36.1 µM (inactive) |  | 81.8 µM (inactive) | > 100 µM (inactive) |  | > 100 µM (inactive) | 51.9 µM (inactive) | 95.3 µM (inactive) | 42.9 | 
5 | NC(=O)C1N=NSC1NC(=O)c1ccc([N+](=O)[O-])cc1 (stereo unspecified) | 54.8 µM (inactive) | 49.2 µM (inactive) |  | 43.5 µM (inactive) | 30.4 µM (inactive) | 60.3 µM (inactive) | 49.4 µM (inactive) | 38.7 µM (inactive) |  | 58.9 µM (inactive) | 26.6 µM (inactive) | 59.4 µM (inactive) | 54.8 µM (inactive) | 26.3 µM (inactive) | 36.6 µM (inactive) | 44.5 µM (inactive) | 78.5 µM (inactive) |  | 53.8 | 13.5 µM (inactive)
6 | CCC(Cc1cnc2nc(N)nc(N)c2n1)c1ccc(C(=O)NC(CCC(=O)O)C(=O)O)cc1 (stereo unspecified) |  | 0.000264 µM (active) | < 0.0001 µM (active) | < 0.0001 µM (active) |  | 0.0127 µM (active) | 0.000396 µM (active) | 0.000621 µM (active) | 0.000247 µM (active) |  | < 0.0001 µM (active) | 0.000456 µM (active) | > 100 µM (inactive) | 1.78 µM (inactive) | 0.000711 µM (active) | 3.24 µM (inactive) | 0.000548 µM (active) | 0.01 µM (active) | 0.000632 | 
7 | Brc1ccc(-c2ccc(-c3ccc(Br)s3)s2)s1 | > 100 µM (inactive) | > 100 µM (inactive) | > 100 µM (inactive) | > 100 µM (inactive) | > 100 µM (inactive) |  | > 100 µM (inactive) | > 100 µM (inactive) | > 100 µM (inactive) | > 100 µM (inactive) | > 100 µM (inactive) | > 100 µM (inactive) | > 100 µM (inactive) | > 100 µM (inactive) | > 100 µM (inactive) | > 100 µM (inactive) | > 100 µM (inactive) |  | > 100 | > 100 µM (inactive)
8 | CO/C(N)=C(C#N)/N=C/c1cccnc1 | > 100 µM (inactive) | > 100 µM (inactive) | > 100 µM (inactive) | 35.8 µM (inactive) | > 100 µM (inactive) | > 100 µM (inactive) | > 100 µM (inactive) | > 100 µM (inactive) | > 100 µM (inactive) | > 100 µM (inactive) | > 100 µM (inactive) |  | > 100 µM (inactive) | > 100 µM (inactive) | > 100 µM (inactive) | > 100 µM (inactive) | > 100 µM (inactive) |  | > 100 | > 100 µM (inactive)
